Results published in patent US7335674B2, “Benzothiazole-4,7-diones and benzoxazole-4,7-diones with substituents in position 5 or 6 and method for production thereof” (Societe de Conseils de Recherches et d'Applications …, priority 2003, dated 2008).

Tests used:
[1] = system: Mia-Paca2 (human pancreas cancer cells); assay: Antiproliferative activity, WST1 colorimetric test, Mia-PaCa2; type: cell-based; details: MIA PaCa-2, Mia-Paca2, treated 96 hours, up to 10 μM, read-out: IC50 on the cell proliferation of the Mia-Paca2 lines
Procedure: (§1) iii) Characterization of the Antiproliferative Activity:
(§2) By way of example, the effect of a treatment on two human cell lines Mia-Paca2 and DU145 by the compounds of the examples described previously will be studied. The cell lines DU145 (human prostate cancer cells) and Mia-PaCa2 (human pancreas cancer cells) were acquired from the American Tissue Culture Collection (Rockville, Md., USA). The cells placed in 80 μl of Dulbecco's Modified Eagle's medium (Gibco-Brl, Cergy-Pontoise, France) completed with 10% foetal calf serum inactivated by heating (Gibco-Brl, Cergy-Pontoise, France), 50,000 units/l of penicillin and 50 mg/l of streptomycin (Gibco-Brl, 10378-057, Cergy-Pontoise, France), and 2 mM of glutamine (Gibco-Brl, Cergy-Pontoise, France) were seeded on a 96-well plate on day 0. The cells were treated on day 1 for 96 hours with increasing concentrations of each of the compounds to be tested up to 10 μM. At the end of this period, quantification of cell proliferation is evaluated by a colorimetric test based on the cleavage of the tetrazolium salt WST1 by the mitochondrial dehydrogenases in viable cells leading to the formation of formazan (Boehringer Mannheim, Meylan, France). These tests are carried out in duplicate with 8 determinations per concentration tested. For each compound to be tested, the values included in the linear part of the sigmoid were retained for a linear regression analysis and used to estimate the inhibitory concentration IC50. The products are solubilized in dimethylsulphoxide (DMSO) at 10^−2 M and finally used in culture with 0.1% DMSO.

[2] = system: DU145 (human prostate cancer cells); assay: Antiproliferative activity, WST1 colorimetric test, DU145; type: cell-based; details: DU-145, treated 96 hours, up to 10 μM, read-out: IC50 on the cell proliferation of the DU-145 lines
Procedure: as §1, §2

Structure (SMILES)	IC50 [1] [µM]	IC50 [2] [µM]
CCCCCCc1nc2c(s1)C(=O)C(NCCN(C)C)=CC2=O [Example 60, 6-{[2-(dimethylamino)ethyl]amino}-2-hexyl-1,3-benzothiazole-4,7-dione]	≤ 10	≤ 10
CN(C)CCNC1=CC(=O)c2sc(-c3ccc(F)cc3)nc2C1=O [Example 4, 5-{[2-(dimethylamino)ethyl]amino}-2-(4-fluorophenyl)-1,3-benzothiazole4,7-dione]	≤ 10	≤ 10
CN(C)CCNC1=CC(=O)c2nc(-c3cc(F)ccc3F)oc2C1=O [Example 27, 2-(2,5-difluorophenyl)-6-{[2-(dimethylamino)ethyl]amino}-1,3-benzoxazole-4,7-dione]	≤ 10	≤ 10
CN(C)CCNC1=CC(=O)c2sc(-c3c(F)cccc3F)nc2C1=O [Example 1, 2-(2,6-difluorophenyl)-5-{[2-(dimethylamino)ethyl]amino}-1,3-benzothiazole-4,7-dione]	≤ 10	≤ 10
CN(C)CCNC1=CC(=O)c2nc(-c3cc(F)ccc3F)sc2C1=O [Example 14, 2-(2,5-difluorophenyl)-6-{[2-(dimethylamino)ethyl]amino}-1,3-benzothiazole-4,7-dione]	≤ 10	≤ 10
CN(C)CCNC1=CC(=O)c2nc(-c3c(F)cccc3Cl)sc2C1=O [Example 12, 2-(2-chloro-6fluorophenyl)-6-{[2-(dimethylamino)ethyl]amino}-1,3-benzothiazole-4,7-dione]	≤ 10	≤ 10
COc1cc(-c2nc3c(o2)C(=O)C(NCCN(C)C)=CC3=O)cc(OC)c1OC [Example 40, 6-{[2-(dimethylamino)ethyl]amino}-2-(3,4,5-trimethoxyphenyl)-1,3-benzoxazole-4,7-dione]	≤ 10	≤ 10
CN(C)CCNC1=CC(=O)c2oc(-c3cc(F)c(F)c(F)c3)nc2C1=O [Example 21, 5-{[2-(dimethylamino)ethyl]amino}-2-(3,4,5-trifluorophenyl)-1,3-benzoxazole4,7-dione]	≤ 10	≤ 10

Other lines, results leading:

IC50 [1] [µM]	IC50 [2] [µM]	Structure (SMILES)
≤ 10	≤ 10	O=C1C(NCCN2CCCC2)=CC(=O)c2sc(-c3c(F)cccc3Cl)nc21 [Example 7, 2-(2-chloro-6-fluorophenyl)-5-[(2-pyrrolidin-1-ylethyl)amino]-1,3-benzothiazole-4,7-dione]
≤ 10	≤ 10	O=C1C(NCCN2CCCC2)=CC(=O)c2sc(-c3ccc(F)cc3)nc21 [Example 5, 2-(4-fluorophenyl)-5-[(2-pyrrolidin-1-ylethyl)amino]-1,3-benzothiazole-4,7-dione]
≤ 10	≤ 10	O=C1C(NCCN2CCCC2)=CC(=O)c2sc(-c3cc(Cl)sc3Cl)nc21 [Example 3, 2-(2,5-dichlorothien-3-yl)-5-[(2-pyrrolidin-1-ylethyl)amino]-1,3-benzothiazole-4,7-dione]
≤ 10	≤ 10	CCc1ccc(-c2nc3c(o2)C(=O)C(NCCN2CCCC2)=CC3=O)cc1 [Example 54, 2-(4-ethylphenyl)-6-[(2-pyrrolidin-1-ylethyl)amino]-1,3-benzoxazole-4,7-dione]
≤ 10	≤ 10	CN(C)CCNC1=CC(=O)c2sc(-c3cc(Cl)sc3Cl)nc2C1=O [Example 2, 2-(2,5-dichlorothien-3-yl)-5-{1-[2-(dimethylamino)ethyl]amino}-1,3-benzothiazole-4,7-dione]
≤ 10	≤ 10	COc1cc(-c2nc3c(o2)C(=O)C(NCCN2CCCC2)=CC3=O)cc(OC)c1OC [Example 56, 6-[(2-pyrrolidin-1-ylethyl)amino]-2-(3,4,5-trimethoxyphenyl)-1,3-benzoxazole-4,7-dione]
≤ 10	≤ 10	CN(C)CCNC1=CC(=O)c2sc(-c3c(F)cccc3Cl)nc2C1=O [Example 6, 2-(2-chloro-6-fluorophenyl)-5-{[2-(dimethylamino)ethyl]amino}-1,3-benzothiazole4,7-dione]
